According to patent publication US10472341B2, “Bicyclic tetrahydrothiazepine derivatives useful for the treatment of neoplastic and/or infectious diseases” (APEIRON BIOLOGICS AG, priority 2015, dated 2019):

Legend:
Type in all cases: cell-based, human
[1] = system: NK cells & K562 leukemia cells; experiment: NK cells alone or in co-culture with K562 leukemia cells: IFN-gamma, TNF-alpha, granzyme, CD25+CD69+
Experimental: Isolated PBMCs, NK cells or CD8 positive cells were plated in Xvivo medium at 1.5*10^5 cells per in 96 well culture plates in the presence of 0.3*10^4 tumor cells where indicated. Cytokine secretion was determined by ELISA, immune cell activation (using Beckman-Coulter Abs CD25-PC5, CD69-PC7), cell viability and numbers by flow cytometry (Beckman-Coulter FC500 or Gallios) using 7-AAD exclusion as criterion for living cells. One of the physiological functions of NK cells in anti-tumor immunity is the recognition and destruction of tumor cells that have a low expression of MHC-molecules, thus avoiding recognition by CD8 T cells. Downregulation of MHC molecules is often actively mediated by an infecting virus or occurs during development of malignant neoplasms. The […] leukemia cell line expresses only very low amounts of MHC-molecules and thus is often used as a model system to investigate anti-tumor NK cell reactivity. NK cells were isolated from PBMCs and were incubated with and without compounds, either alone or in co-culture with K562 leukemia cells.

M21 melanoma cells = experiment: M21 viability (number of living cells) with or without CD8 cells
Experimental: (§1) Isolated PBMCs, NK cells or CD8 positive cells were plated in Xvivo medium at 1.5*10^5 cells per in 96 well culture plates in the presence of 0.3*10^4 tumor cells where indicated. Cytokine secretion was determined by ELISA, immune cell activation (using Beckman-Coulter Abs CD25-PC5, CD69-PC7), cell viability and numbers by flow cytometry (Beckman-Coulter FC500 or Gallios) using 7-AAD exclusion as criterion for living cells. CD8-positive immune cells were isolated from PBMCs and were incubated with and without compound example 67, either alone or in co-culture with M21 melanoma cells.

K562 leukemia cells = experiment: Living tumor cells (K562) in the presence of NK cells
Experimental: as §1, with “NK” for “CD8-positive immune”, “compounds,” for “compound example 67,”, “K562 leukemia” for “M21 melanoma”

SMILES: CCCCNC(=O)c1ccc2c(c1)N(Cc1ccc(OC(F)(F)F)cc1)C(=O)[C@@H](N)CS2(=O)=O.Cl [Example 67, (3R)-3-amino-N-butyl-1,1,4-trioxo-5-{[4-(trifluoromethoxy)phenyl]methyl}-2,3,4,5-tetrahydro-1λ^6,5-benzothiazepine-7-carboxamide hydrochloride]
- IFN-gamma [ng/ml] Avg ([1]; 0.03 μM, NK cells & K562): 7.47 ng/mL
- TNF-alpha [ng/ml] avg ([1]; 0.03 μM, NK cells & K562): 0.21 ng/mL
- IFN-gamma [ng/ml] Avg ([1]; 0.03 μM, NK cells only): below
- TNF-alpha [ng/ml] avg ([1]; 0.03 μM, NK cells only): below
- IFN-gamma [ng/ml] Avg ([1]; 0.1 μM, NK cells & K562): 10.14 ng/mL
- TNF-alpha [ng/ml] avg ([1]; 0.1 μM, NK cells & K562): 0.26 ng/mL
- IFN-gamma [ng/ml] Avg ([1]; 0.1 μM, NK cells only): below
- TNF-alpha [ng/ml] avg ([1]; 0.1 μM, NK cells only): below
- IFN-gamma [ng/ml] Avg ([1]; 0.3 μM, NK cells & K562): 11.24 ng/mL
- TNF-alpha [ng/ml] avg ([1]; 0.3 μM, NK cells & K562): 0.33 ng/mL
- IFN-gamma [ng/ml] Avg ([1]; 0.3 μM, NK cells only): below
- TNF-alpha [ng/ml] avg ([1]; 0.3 μM, NK cells only): below
- IFN-gamma [ng/ml] Avg ([1]; 1 μM, NK cells & K562): 16.40 ng/mL
- TNF-alpha [ng/ml] avg ([1]; 1 μM, NK cells & K562): 0.57 ng/mL
- IFN-gamma [ng/ml] Avg ([1]; 1 μM, NK cells only): below
- TNF-alpha [ng/ml] avg ([1]; 1 μM, NK cells only): below
- IFN-gamma [ng/ml] Avg ([1]; 3 μM, NK cells & K562): 17.80 ng/mL
- TNF-alpha [ng/ml] avg ([1]; 3 μM, NK cells & K562): 0.58 ng/mL
- IFN-gamma [ng/ml] Avg ([1]; 3 μM, NK cells only): below
- TNF-alpha [ng/ml] avg ([1]; 3 μM, NK cells only): below
- IFN-gamma [ng/ml] Avg ([1]; 10 μM, NK cells & K562): 22.65 ng/mL
- TNF-alpha [ng/ml] avg ([1]; 10 μM, NK cells & K562): 0.80 ng/mL
- IFN-gamma [ng/ml] Avg ([1]; 10 μM, NK cells only): below
- TNF-alpha [ng/ml] avg ([1]; 10 μM, NK cells only): below
- IFN-gamma [ng/ml] Avg ([1]; 30 μM, NK cells & K562): 19.98 ng/mL
- TNF-alpha [ng/ml] avg ([1]; 30 μM, NK cells & K562): 0.79 ng/mL
- IFN-gamma [ng/ml] Avg ([1]; 30 μM, NK cells only): below
- TNF-alpha [ng/ml] avg ([1]; 30 μM, NK cells only): below
- CD25+CD69+ ([1]; NK cells & K562, 0.03 μM): 6.90 % gated
- Granzyme ([1]; NK cells & K562, 0.03 μM): 0.65 ng/mL
- CD25+CD69+ ([1]; NK cells & K562, 0.1 μM): 8.44 % gated
- Granzyme ([1]; NK cells & K562, 0.1 μM): 0.93 ng/mL
- CD25+CD69+ ([1]; NK cells & K562, 0.3 μM): 9.68 % gated
- Granzyme ([1]; NK cells & K562, 0.3 μM): 1.01 ng/mL
- CD25+CD69+ ([1]; NK cells & K562, 1 μM): 18.80 % gated
- Granzyme ([1]; NK cells & K562, 1 μM): 1.47 ng/mL
- CD25+CD69+ ([1]; NK cells & K562, 3 μM): 21.66 % gated
- Granzyme ([1]; NK cells & K562, 3 μM): 1.62 ng/mL
- CD25+CD69+ ([1]; NK cells & K562, 10 μM): 31.98 % gated
- Granzyme ([1]; NK cells & K562, 10 μM): 2.52 ng/mL
- CD25+CD69+ ([1]; NK cells & K562, 30 μM): 35.89 % gated
- Granzyme ([1]; NK cells & K562, 30 μM): 2.43 ng/mL
- production of IFN-gamma and TNF-alpha ([1]; NK cells in co-culture with K562 leukemia cells): enhanced production of both cytokines specifically upon tumor cell contact
- enhancement of IFN-gamma and TNF-alpha production ([1]; NK cells in the absence of tumor cells): such effect was not detected in the absence of tumor cells
- CD25+CD69+ ([1]; NK cells only, 0.03 μM): 0.05 % gated
- Granzyme ([1]; NK cells only, 0.03 μM): 0.08 ng/mL
- CD25+CD69+ ([1]; NK cells only, 0.1 μM): 0.06 % gated
- Granzyme ([1]; NK cells only, 0.1 μM): 0.09 ng/mL
- CD25+CD69+ ([1]; NK cells only, 0.3 μM): 0.15 % gated
- Granzyme ([1]; NK cells only, 0.3 μM): 0.08 ng/mL
- CD25+CD69+ ([1]; NK cells only, 1 μM): 0.39 % gated
- Granzyme ([1]; NK cells only, 1 μM): 0.06 ng/mL
- CD25+CD69+ ([1]; NK cells only, 3 μM): 0.47 % gated
- Granzyme ([1]; NK cells only, 3 μM): 0.12 ng/mL
- CD25+CD69+ ([1]; NK cells only, 10 μM): 0.95 % gated
- Granzyme ([1]; NK cells only, 10 μM): 0.15 ng/mL
- CD25+CD69+ ([1]; NK cells only, 30 μM): 1.24 % gated
- Granzyme ([1]; NK cells only, 30 μM): 0.25 ng/mL
- M21 Viability [Number of Living Cells] average (M21 melanoma cells; 0.03 μM, CD8 cells & M21): 13077.00 Number of Living Cells
- M21 Viability [Number of Living Cells] average (M21 melanoma cells; 0.1 μM, CD8 cells & M21): 11586.67 Number of Living Cells
- M21 Viability [Number of Living Cells] average (M21 melanoma cells; 0.3 μM, CD8 cells & M21): 9525.67 Number of Living Cells
- M21 Viability [Number of Living Cells] average (M21 melanoma cells; 1 μM, CD8 cells & M21): 3916.67 Number of Living Cells
- M21 Viability [Number of Living Cells] average (M21 melanoma cells; 3 μM, CD8 cells & M21): 3604.00 Number of Living Cells
- M21 Viability [Number of Living Cells] average (M21 melanoma cells; 10 μM, CD8 cells & M21): 3448.67 Number of Living Cells
- M21 Viability [Number of Living Cells] average (M21 melanoma cells; 10 μM, M21 only (no CD8 cells)): 18139 Number of Living Cells
- viable tumor cells (M21 melanoma cells; immune cell cocultures with M21 tumor cells): strong reduction in viable tumor cells
- Living tumor cells (K562 leukemia cells; K562 only, 0.3 μM): 22199.00
- Living tumor cells (K562 leukemia cells; K562 only, 3 μM): 20750.33
- Living tumor cells (K562 leukemia cells; K562 only, 30 μM): 22719.33
- Living tumor cells (K562 leukemia cells; NK cells & K562, 0.01 μM): 709.00
- Living tumor cells (K562 leukemia cells; NK cells & K562, 0.03 μM): 779.67
- Living tumor cells (K562 leukemia cells; NK cells & K562, 0.1 μM): 712.67
- Living tumor cells (K562 leukemia cells; NK cells & K562, 0.3 μM): 676.00
- Living tumor cells (K562 leukemia cells; NK cells & K562, 1 μM): 623.33
- Living tumor cells (K562 leukemia cells; NK cells & K562, 3 μM): 620.33
- Living tumor cells (K562 leukemia cells; NK cells & K562, 10 μM): 611.67
- Living tumor cells (K562 leukemia cells; NK cells & K562, 30 μM): 632.00
